Data published in patent US20190047966A1, “NOVEL COMPOUND AND PHARMACOLOGICALLY ACCEPTABLE SALT THEREOF” (MEIJI SEIKA PHARMA CO., LTD., priority 2016, published 2019).
Where a name gives a salt, the structure may show the parent alone.

Assays:
[1] = target: human histamine H1 receptor (Homo sapiens, UniProt P35367); experiment: Evaluation of Human H1 Receptor Affinity ([3H]pyrilamine binding); parameters: purchased PerkinElmer Inc; host or cells: CHO-K1; details: inhibition constant Ki, CHO-K1 membrane preparation
Chain of human histamine H1 receptor (P35367 whole entry): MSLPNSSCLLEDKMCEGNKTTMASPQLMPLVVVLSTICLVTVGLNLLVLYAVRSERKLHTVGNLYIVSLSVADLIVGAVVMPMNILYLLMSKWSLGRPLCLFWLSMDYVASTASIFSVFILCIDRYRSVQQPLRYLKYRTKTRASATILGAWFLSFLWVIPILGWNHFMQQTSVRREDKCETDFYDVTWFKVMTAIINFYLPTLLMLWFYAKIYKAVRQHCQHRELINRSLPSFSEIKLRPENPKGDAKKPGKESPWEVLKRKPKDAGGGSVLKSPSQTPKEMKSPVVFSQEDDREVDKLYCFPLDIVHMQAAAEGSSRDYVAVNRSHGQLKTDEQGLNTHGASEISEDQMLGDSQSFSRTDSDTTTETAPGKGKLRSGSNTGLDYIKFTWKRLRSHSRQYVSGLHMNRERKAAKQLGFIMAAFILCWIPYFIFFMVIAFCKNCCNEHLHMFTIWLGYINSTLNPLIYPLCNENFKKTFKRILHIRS
Description: Test Example 1: Evaluation of Human H1 Receptor Affinity
Membrane preparation from recombinant CHO-K1 cell expressing the human histamine H1 receptor (PerkinElmer Inc.), radiolabeled ligand 1.2 nM [^3H]pyrilamine (PerkinElmer Inc.), and test compounds dissolved in DMSO were reacted at 25° C. for 3 hours in a buffering solution containing 50 mM tris-hydrochloric acid, pH 7.4, and 5 mM magnesium chloride on a 96 well plate, followed by filtration using a GF/B filter (PerkinElmer Inc.) pretreated with 0.3% polyethylenimine. The residue was washed four times with a buffering solution of 50 mM tris-hydrochloric acid, pH 7.4. Thereafter, a scintillation cocktail (MicroScint 20: PerkinElmer Inc.) was added to the GF/B filter, and the radioactivity of each well was measured using a liquid scintillation counter for 96-well (TopCount: PerkinElmer Inc.). The non-specific binding was evaluated in the presence of 1.0 μM pyrilamine. The inhibition constant Ki was calculated from the 50% inhibitory concentration (IC50 value) obtained in each test and the Kd value (1.1 nM) unique to this assay system, according to the Cheng-Prusoff equation.

[2] = target: T1, human histamine H4 receptor (Homo sapiens, UniProt Q9H3N8); experiment: Evaluation of Human H4 Receptor Affinity ([3H]histamine binding); details: inhibition constant Ki, CHO-K1 membrane preparation, read-out: Evaluation of H4 Receptor Affinity
T1 construct: purchased PerkinElmer Inc; host or cells: CHO-K1
Description: Test Example 2: Evaluation of Human H4 Receptor Affinity
Membrane preparation from recombinant CHO-K1 cell expressing the human histamine H4 receptor (PerkinElmer Inc.), radiolabeled ligand 8.2 nM [^3H]histamine (PerkinElmer Inc.), and compounds dissolved in DMSO were reacted at 25° C. for 90 minutes in a buffering solution containing 50 mM tris-hydrochloric acid, pH 7.4, and 1.25 mM EDTA on a 96 well plate, followed by filtration using a GF/B filter (PerkinElmer Inc.) pretreated with 0.3% polyethylenimine. The residue was washed four times with a buffering solution of 50 mM tris-hydrochloric acid, pH 7.4. Thereafter, a scintillation cocktail (MicroScint 20: PerkinElmer Inc.) was added to the GF/B filter, and the radioactivity of each well was measured using a liquid scintillation counter for 96-well (TopCount: PerkinElmer Inc.). The non-specific binding was evaluated in the presence of 1.0 μM histamine. The inhibition constant Ki was calculated from the 50% inhibitory concentration (IC50 value) obtained in each test and the Kd value (5.7 nM) unique to this assay system, according to the Cheng-Prusoff equation.

Row | Compound | Ki [1] [nM] | Ki [2] [nM]
1 | COC(=O)c1cccc(COCCN2CCN(c3nc(N)nc4c3CCc3cc(OCc5ccc(OC(F)(F)F)cc5)ccc3-4)CC2)c1 [16(a), methyl 3-((2-(4-(2-amino-8-((4-(trifluoromethoxy)benzyl)oxy)-5,6-dihydrobenzo[h]quinazolin-4-yl)piperazin-1-yl)ethoxy)methyl)benzoate] | < 100 | 100 to 500
2 | Nc1nc2c(c(N3CCN(CCO[C@H]4CC[C@H](C(=O)O)CC4)CC3)n1)CCc1cc(OCc3ccc(Cl)cc3)ccc1-2 [Example 28, trans-4-(2-(4-(2-amino-8-((4-chlorobenzyl)oxy)-5,6-dihydrobenzo[h]quinazolin-4-yl)piperazin-1-yl)ethoxy)cyclohexane-1-carboxylic acid] | < 100 | < 100
3 | CN1CCN(c2nc(N)nc3c2CCc2cc(NS(=O)(=O)c4cccc(Cl)c4)ccc2-3)CC1 [Example 43, N-(2-amino-4-(4-methylpiperazin-1-yl)-5,6-dihydrobenzo[h]quinazolin-8-yl)-3-chlorobenzenesulfonamide] | 100 to 500 | 100 to 500
4 | cis-3-(2-(4-(2-amino-8-((4-cyclopropylbenzyl)oxy)-5,6-dihydrobenzo[h]quinazolin-4-yl)piperazin-1-yl)ethoxy)cyclobutane-l-carboxylic acid [Example 214] | < 100 | < 100
5 | NC(=O)COCCOCCN1CCN(c2nc(N)nc3c2CCc2cc(OCc4ccccc4)ccc2-3)CC1 [Example 109, 2-(2-(2-(4-(2-amino-8-(benzyloxy)-5,6-dihydrobenzo[h]quinazolin-4-yl)piperazin-1-yl)ethoxy)ethoxy)acetamide] | < 100 | 100 to 500
6 | CC1(C(=O)O)CC(OCCN2CCN(c3nc(N)nc4c3CCc3cc(OCc5ccc(OC(F)(F)F)cc5)ccc3-4)CC2)C1 (stereo not drawn) [Example 31, cis-3-(2-(4-(2-amino-8-((4-(trifluoromethoxy)benzyl)oxy)-5,6-dihydrobenzo[h]quinazolin-4-yl)piperazin-1-yl)ethoxy)-1-methylcyclobutane-1-carboxylic acid] | < 100 | 100 to 500
7 | Nc1nc2c(c(N3CCN(CCO[C@H]4C[C@H](C(=O)O)C4)CC3)n1)CCc1cc(OCc3ccc(OC(F)(F)F)cc3)ccc1-2 [Example 30, trans-3-(2-(4-(2-amino-8-((4-(trifluoromethoxy)benzyl)oxy)-5,6-dihydrobenzo[h]quinazolin-4-yl)piperazin-1-yl)ethoxy)cyclobutane-1-carboxylic acid] | < 100 | < 100
8 | CN1CCN(c2nc(N)nc3c2CCc2cc(NS(=O)(=O)c4ccc(Cl)s4)ccc2-3)CC1 [Example 44, N-(2-amino-4-(4-methylpiperazin-1-yl)-5,6-dihydrobenzo[h]quinazolin-8-yl)-5-chlorothiophene-2-sulfonamide] | 100 to 500 | 100 to 500
9 | Nc1nc2c(c(N3CCN(CCCCOC4CC(C(=O)O)C4)CC3)n1)CCc1cc(OCc3ccc(Cl)cc3)ccc1-2 (centres unmarked) [Example 141, 3-(4-(4-(2-amino-8-((4-chlorobenzyl)oxy)-5,6-dihydrobenzo[h]quinazolin-4-yl)piperazin-1-yl)butoxy)cyclobutane-1-carboxylic acid dihydrochloride] | < 100 | 100 to 500
10 | Nc1nc2c(c(N3CCN(CCOCCO)CC3)n1)CCc1cc(OCc3ccc(Cl)cc3)ccc1-2 [Example 8, 2-(2-(4-(2-amino-8-((4-chlorobenzyl)oxy)-5,6-dihydrobenzo[h]quinazolin-4-yl)piperazin-1-yl)ethoxy)ethan-1-ol] | < 100 | < 100
11 | COC(=O)COCCN1CCN(c2nc(N)nc3c2CCc2cc(OCc4ccc(Cl)cc4)ccc2-3)CC1 [Example 113, methyl 2-(2-(4-(2-amino-8-((4-chlorobenzyl)oxy)-5,6-dihydrobenzo[h]quinazolin-4-yl)piperazin-1-yl)ethoxy)acetate] | < 100 | < 100

Further lines, results first:

Row | Ki [1] [nM] | Ki [2] [nM] | Compound
12 | < 100 | 100 to 500 | Nc1nc2c(c(N3CCN(CCOCc4ccc(C(=O)O)s4)CC3)n1)CCc1cc(OCc3ccc(OC(F)(F)F)cc3)ccc1-2 [Example 182, 5-((2-(4-(2-amino-8-((4-(trifluoromethoxy)benzyl)oxy)-5,6-dihydrobenzo[h]quinazolin-4-yl)piperazin-1-yl)ethoxy)methyl)thiophene-2-carboxylic acid]
13 | < 100 | < 100 | CC1(C(=O)O)CCC(COCCN2CCN(c3nc(N)nc4c3CCc3cc(OCc5ccc(Cl)cc5)ccc3-4)CC2)CC1 (stereo not drawn) [Example 165, trans- or cis-4-((2-(4-(2-amino-8-((4-chlorobenzyl)oxy)-5,6-dihydrobenzo[h]quinazolin-4-yl)piperazin-1-yl)ethoxy)methyl)-1-methylcyclohexane-1-carboxylic acid]
14 | < 100 | < 100 | Nc1nc2c(c(N3CCN(CCO[C@H]4C[C@@H]5[C@H](C4)[C@@]5(F)C(=O)O)CC3)n1)CCc1cc(OCc3ccc(OC(F)(F)F)cc3)ccc1-2 [Example 180, (1R,3r,5S,6s)-3-(2-(4-(2-amino-8-((4-(trifluoromethoxy)benzyl)oxy)-5,6-dihydrobenzo[h]quinazolin-4-yl)piperazin-1-yl)ethoxy)-6-fluorobicyclo[3.1.0]hexane-6-carboxylic acid]
15 | < 100 | < 100 | COc1cc(OC(F)(F)F)ccc1COc1ccc2c(c1)CCc1c-2nc(N)nc1N1CCN(CCO[C@H]2C[C@@H](C(=O)O)C2)CC1 [Example 207, cis-3-(2-(4-(2-amino-8-((2-methoxy-4-(trifluoromethoxy)benzyl)oxy)-5,6-dihydrobenzo[h]quinazolin-4-yl)piperazin-1-yl)ethoxy)cyclobutane-1-carboxylic acid]
16 | < 100 | < 100 | Nc1nc2c(c(N3CCN(CCOCc4nc(C(=O)O)cs4)CC3)n1)CCc1cc(OCc3ccc(OC(F)(F)F)cc3)ccc1-2 [Example 142, 2-((2-(4-(2-amino-8-((4-(trifluoromethoxy)benzyl)oxy)-5,6-dihydrobenzo[h]quinazolin-4-yl)piperazin-1-yl)ethoxy)methyl)thiazole-4-carboxylic acid dihydrochloride]
17 | < 100 | < 100 | Nc1nc2c(c(N3CCN(CCOC[C@@H]4CCC[C@H](C(=O)O)C4)CC3)n1)CCc1cc(OCc3ccc(OC(F)(F)F)cc3)ccc1-2 (relative stereo) [Example 186, cis-3-((2-(4-(2-amino-8-((4-(trifluoromethoxy)benzyl)oxy)-5,6-dihydrobenzo[h]quinazolin-4-yl)piperazin-1-yl)ethoxy)methyl)cyclohexane-1-carboxylic acid dihydrochloride]
18 | < 100 | < 100 | Nc1nc2c(c(N3CCNCC3)n1)CCc1cc(NS(=O)(=O)c3ccc(OC(F)(F)F)cc3)ccc1-2 [Example 192, N-(2-amino-4-(4-piperazin-1-yl)-5,6-dihydrobenzo[h]quinazolin-8-yl)-4-(trifluoromethoxy)benezenesulfonamide hydrochloride]
19 | < 100 | 100 to 500 | Nc1nc2c(c(N3CCN(CCO[C@H]4C[C@@H]5[C@H](C4)[C@H]5C(=O)O)CC3)n1)CCc1cc(OCc3ccc(OC(F)(F)F)cc3)ccc1-2 [Example 146, (1R,3r,5S,6r)-3-(2-(4-(2-amino-8-((4-(trifluoromethoxy)benzyl)oxy)-5,6-dihydrobenzo[h]quinazolin-4-yl)piperazin-1-yl)ethoxy)bicyclo[3.1.0]hexane-6-carboxylic acid]
20 | < 100 | < 100 | Nc1nc2c(c(N3CCN(CCOCC4CC(C(=O)O)C4)CC3)n1)CCc1cc(OCc3ccc(Cl)cc3)ccc1-2 (stereo not drawn) [Example 170, trans- or cis-3-((2-(4-(2-amino-8-((4-chlorobenzyl)oxy)-5,6-dihydrobenzo[h]quinazolin-4-yl)piperazin-1-yl)ethoxy)methyl)cyclobutane-1-carboxylic acid]
21 | < 100 | < 100 | Nc1nc2c(c(N3CCN(CCO[C@H]4C[C@@H](C(=O)O)C4)CC3)n1)CCc1cc(OCc3ccc(SC(F)(F)F)cc3)ccc1-2 [Example 211]
22 | < 100 | < 100 | Nc1nc2c(c(N3CCN(CCOCC4CN(C5=NS(=O)(=O)N=C5O)C4)CC3)n1)CCc1cc(OCc3ccc(OC(F)(F)F)cc3)ccc1-2 [Example 190(b), 3-(3-((2-(4-(2-amino-8-((4-(trifluoromethoxy)benzyl)oxy)-5,6-dihydrobenzo[h]quinazolin-4-yl)piperazin-1-yl)ethoxy)methyl)azetidin-1-yl)-4-hydroxy-1,2,5-thiadiazole 1,1-dioxide]
